For the first test, the system named is progranulin. Briefly: In vivo progranulin secretion assay after oral administration. To be noted: oral administration at 5 mg/kg; progranulin secretion post dose relative to the control. The procedure:
In vivo Assays: Progranulin can be detected in tissue sample or biofluids including blood, plasma, brain, liver and cerebrospinal fluid (CSF) from different non-human animals including rat, mouse, dog, and cynomolgus monkeys. Progranulin concentration can be detected using one or more methods including an enzyme-linked immunosorbent assay (ELISA). Non-human animals including rat, mouse, dog, and cynomolgus monkeys are administered a compound as disclosed herein by one of several routes of administration including oral, subcutaneous, and intravenous routes of administration. Samples of tissue or biofluids are collected at specific times before and following compound administration. The amount of progranulin in a specific sample collected after compound administration is compared to the amount of progranulin detected in a sample of the same tissue or biofluid obtained prior to compound administration. […] Test compounds can be administered one or more times. When compounds are administered more than one time, the number of doses and the intervals between doses can be adjusted to any combination. For example, a test compound can be administered a single time, a test compound can be administered 8 times at intervals of 12 hours, and a test compound can be administered 4 times at intervals of 24 hours. The ability of a compound to increase progranulin can be quantified in several ways. […]
Consider `N[C@@H]1CC[C@@H](C(=O)N2CCc3ccccc3[C@@H]2c2ccc(F)cc2)OC1` [Compound 5015, ((2S,5R)-5-aminotetrahydro-2H-pyran-2-yl)((S)-1-(4-fluorophenyl)-3,4-dihydroisoquinolin-2(1H)-yl)methanone], for which the “Activity Level” value is 7 (at least about 300% (Activity level 7)). As to `N[C@H]1CC[C@H](C(=O)N2CCc3ccccc3[C@@H]2c2ccc(F)cc2)OC1` [Compound 5042, ((2R,5S)-5-aminotetrahydro-2H-pyran-2-yl)((S)-1-(4-fluorophenyl)-3,4-dihydroisoquinolin-2(1H)-yl)methanone], the “Activity Level” value is listed as 6 (at least about 250% (Activity level 6)).

Another test concerns progranulin. Briefly: Progranulin induction cellular assay (ELISA of secreted mouse PGRN). The class given is cell-based. To be noted: Mus musculus, BV-2, read-out: EC50 μM. The essentials: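 Secreted mouse PGRN in culture medium is measured by ELISA. Cells tested are BV-2, primary cortical neurons and primary microglia. BV-2 cells are plated a day ahead, allowed 1 h to attach, then incubated 16 h.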
Turning to `C#CCO[C@H]1CO[C@@H](C(=O)N2CCc3ccccc3[C@@H]2c2ccc(F)cc2)C[C@@H]1N` [Compound 5541, ((2R,4S,5R)-4-amino-5-(prop-2-yn-1-yloxy)tetrahydro-2H-pyran-2-yl)((S)-1-(4-fluorophenyl)-3,4-dihydroisoquinolin-2(1H)-yl)methanone], the EC50 stood at 0.001 µM.

The same test, now with this note: progranulin induction assay; mouse pMG, primary cortical neurons and BV-2 cell lines named, cell type not given; ELISA-based readout; read-out: EC50.
For the compound `N[C@@H]1CC[C@@H](C(=O)N2CCc3ccccc3[C@@H]2c2ccc(F)cc2)OC1` [Compound 5015, ((2S,5R)-5-aminotetrahydro-2H-pyran-2-yl)((S)-1-(4-fluorophenyl)-3,4-dihydroisoquinolin-2(1H)-yl)methanone], the EC50 was determined as 0.09 µM. The same measure, in the same setting: to `N[C@H]1CC[C@H](C(=O)N2CCc3ccccc3[C@@H]2c2ccc(F)cc2)OC1` [Compound 5042, ((2R,5S)-5-aminotetrahydro-2H-pyran-2-yl)((S)-1-(4-fluorophenyl)-3,4-dihydroisoquinolin-2(1H)-yl)methanone] belongs 0.079 µM.

Turning to `CN1C(=O)CN[C@H]2C[C@H](C(=O)N3CCc4ccccc4[C@@H]3c3ccc(F)cc3)OC[C@@H]21` [Compound 5533, (4aR,7R,8aS)-7-((S)-1-(4-fluorophenyl)-1,2,3,4-tetrahydroisoquinoline-2-carbonyl)-4-methylhexahydro-2H-pyrano[3,4-b]pyrazin-3(4H)-one], the EC50 worked out at 0.289 µM. For the compound `CCN1C(=O)CN[C@H]2C[C@H](C(=O)N3CCc4ccccc4[C@@H]3c3ccc(F)cc3)OC[C@@H]21` [Compound 5536, (4aR,7R,8aS)-4-ethyl-7-((S)-1-(4-fluorophenyl)-1,2,3,4-tetrahydroisoquinoline-2-carbonyl)hexahydro-2H-pyrano[3,4-b]pyrazin-3(4H)-one], the EC50 stood at 0.15 µM.

For the compound `N[C@H]1C[C@H](C(=O)N2CCc3ccccc3[C@@H]2c2ccc(F)cc2)OC[C@@H]1CO` [Compound 5537, ((2R,4S,5S)-4-amino-5-(hydroxymethyl)tetrahydro-2H-pyran-2-yl)((S)-1-(4-fluorophenyl)-3,4-dihydroisoquinolin-2(1H)-yl)methanone], the EC50 was found to be 0.029 µM.

For `N[C@H]1C[C@H](C(=O)N2CCc3ccccc3[C@@H]2c2ccc(F)cc2)OC[C@H]1CO` [Compound 5538, ((2R,4S,5R)-4-amino-5-(hydroxymethyl)tetrahydro-2H-pyran-2-yl)((S)-1-(4-fluorophenyl)-3,4-dihydroisoquinolin-2(1H)-yl)methanone], the 50% effective concentration (EC50) was found to be 0.064 µM. In the case of `N[C@H]1C[C@H](C(=O)N2CCc3ccccc3[C@@H]2c2ccc(F)cc2)OC[C@@H]1NCC(F)(F)F` [Compound 5539, ((2R,4S,5R)-4-amino-5-((2,2,2-trifluoroethyl)amino)tetrahydro-2H-pyran-2-yl)((S)-1-(4-fluorophenyl)-3,4-dihydroisoquinolin-2(1H)-yl)methanone], the EC50 stood at 0.001 µM. On the same count and under the same terms, in the case of `O=C([C@H]1C[C@@H]2NCCS(=O)(=O)[C@H]2CO1)N1CCc2ccccc2[C@@H]1c1ccc(F)cc1` [Compound 5542, ((4aR,7R,8aS)-4,4-dioxidooctahydropyrano[3,4-b][1,4]thiazin-7-yl)((S)-1-(4-fluorophenyl)-3,4-dihydroisoquinolin-2(1H)-yl)methanone] it was 4.39 µM; in that of `C#CCO[C@H]1COC(C(=O)N2CCc3ccccc3[C@@H]2c2ccc(F)cc2)C[C@@H]1NCCCOC` (stereo partly drawn) [Compound 5546], 0.03 µM. Same read-out and setting: to `[NH-][S@@+2]1([O-])CCN[C@H]2C[C@H](C(=O)N3CCc4ccccc4[C@@H]3c3ccc(F)cc3)OC[C@@H]21` [Compound 5553, ((S)-1-(4-fluorophenyl)-3,4-dihydroisoquinolin-2(1H)-yl)((4R,4aR,7R,8aS)-4-imino-4-oxidooctahydro-2H-^4-pyrano[3,4-b][1,4]thiazin-7-yl)methanone] belongs 1.02 µM; to `CC[C@@H]1CN[C@H]2C[C@H](C(=O)N3CCc4ccccc4[C@@H]3c3ccc(F)cc3)OC[C@@H]2O1` [Compound 5564, ((3R,4aR,7R,8aS)-3-ethyloctahydropyrano[3,4-b][1,4]oxazin-7-yl)((S)-1-(4-fluorophenyl)-3,4-dihydroisoquinolin-2(1H)-yl)methanone], 0.004 µM.

In the case of `CCC[C@@H]1CN[C@H]2C[C@H](C(=O)N3CCc4ccccc4[C@@H]3c3ccc(F)cc3)OC[C@@H]2O1` [Compound 5565], the EC50 was above 0.3 µM. Regarding `COC[C@@H]1CN[C@H]2C[C@H](C(=O)N3CCc4ccccc4[C@@H]3c3ccc(F)cc3)OC[C@@H]2O1` [Compound 5566], the EC50 is above 0.3 µM. On the same count and under the same terms, in the case of `CC(C)[C@@H]1CN[C@H]2C[C@H](C(=O)N3CCc4ccccc4[C@@H]3c3ccc(F)cc3)OC[C@@H]2O1` [Compound 5567] it was 0.07 µM; in that of `CO[C@H]1CO[C@@H](C(=O)N2CCc3ccccc3[C@@H]2c2ccc(F)cc2)C[C@@H]1NCCO` [Compound 5568], 0.025 µM. As for `COCCN[C@H]1C[C@H](C(=O)N2CCc3ccccc3[C@@H]2c2ccc(F)cc2)OC[C@@H]1OC` [Compound 5569, ((S)-1-(4-fluorophenyl)-3,4-dihydroisoquinolin-2(1H)-yl)((2R,4S,5R)-5-methoxy-4-((2-methoxyethyl)amino)tetrahydro-2H-pyran-2-yl)methanone], the EC50 was above 0.3 µM. Same read-out and setting: to `CO[C@H]1CO[C@@H](C(=O)N2CCc3ccccc3[C@@H]2c2ccc(F)cc2)C[C@@H]1NCCC(F)(F)F` [Compound 5570] belongs 0.232 µM. As for `CO[C@H]1CO[C@@H](C(=O)N2CCc3ccccc3[C@@H]2c2ccc(F)cc2)C[C@@H]1N(C)C` [Compound 5575, ((2R,4S,5R)-4-(dimethylamino)-5-methoxytetrahydro-2H-pyran-2-yl)((S)-1-(4-fluorophenyl)-3,4-dihydroisoquinolin-2(1H)-yl)methanone], the EC50 is 0.028 µM. Still for that read-out and setting: in the case of `CO[C@H]1CO[C@@H](C(=O)N2CCc3ccccc3[C@@H]2c2ccc(F)cc2)C[C@@H]1NCC(F)(F)F` [Compound 5577] it was above 0.3 µM; in that of `C=CCN[C@H]1C[C@H](C(=O)N2CCc3ccccc3[C@@H]2c2ccc(F)cc2)OC[C@@H]1OC` [Compound 5578], 0.03 µM. Still for that read-out and setting: to `CCCN[C@H]1C[C@H](C(=O)N2CCc3ccccc3[C@@H]2c2ccc(F)cc2)OC[C@@H]1OC` [Compound 5579] belongs 0.05 µM; to `CN[C@H]1C[C@H](C(=O)N2CCc3ccccc3[C@@H]2c2ccc(F)cc2)OC[C@@H]1O` [Compound 5586], 0.219 µM. Still for that read-out and setting: to `CCN[C@H]1C[C@H](C(=O)N2CCc3ccccc3[C@@H]2c2ccc(F)cc2)OC[C@@H]1O` [Compound 5587] belongs 0.194 µM. Turning to `CCN1CCN[C@H]2C[C@H](C(=O)N3CCc4ccccc4[C@@H]3c3ccc(F)cc3)OC[C@@H]21` [Compound 5599], the EC50 is 0.001 µM. Same read-out and setting: in the case of `CCCN1CCN[C@H]2C[C@H](C(=O)N3CCc4ccccc4[C@@H]3c3ccc(F)cc3)OC[C@@H]21` [Compound 5600] it was 0.021 µM; in that of `COCCN1CCN[C@H]2C[C@H](C(=O)N3CCc4ccccc4[C@@H]3c3ccc(F)cc3)OC[C@@H]21` [Compound 5601], 0.018 µM; in that of `CC(C)(C)N1CCN[C@H]2C[C@H](C(=O)N3CCc4ccccc4[C@@H]3c3ccc(F)cc3)OC[C@@H]21` [Compound 5603], 0.008 µM.

These data come from patent US20230406843A1, “Progranulin Modulators and Methods of Using the Same” (ARKUDA THERAPEUTICS, priority 2020, published 2023).
